Results: ChEMBL document CHEMBL1121869, “Potential inhibitors of L-asparagine biosynthesis. 5. Electrophilic amide analogues of (S)-2,3-diaminopropionic acid” (J Med Chem, 1981)

How the values were obtained:
[1] = target: T1, Asparagine synthetase [glutamine-hydrolyzing] (Rattus norvegicus) (UniProt P49088); assay: Inhibition of asparagine synthetase from partially purified rat Novikoff hepatoma at a final concentration of 2 mM
T1 sequence (whole entry): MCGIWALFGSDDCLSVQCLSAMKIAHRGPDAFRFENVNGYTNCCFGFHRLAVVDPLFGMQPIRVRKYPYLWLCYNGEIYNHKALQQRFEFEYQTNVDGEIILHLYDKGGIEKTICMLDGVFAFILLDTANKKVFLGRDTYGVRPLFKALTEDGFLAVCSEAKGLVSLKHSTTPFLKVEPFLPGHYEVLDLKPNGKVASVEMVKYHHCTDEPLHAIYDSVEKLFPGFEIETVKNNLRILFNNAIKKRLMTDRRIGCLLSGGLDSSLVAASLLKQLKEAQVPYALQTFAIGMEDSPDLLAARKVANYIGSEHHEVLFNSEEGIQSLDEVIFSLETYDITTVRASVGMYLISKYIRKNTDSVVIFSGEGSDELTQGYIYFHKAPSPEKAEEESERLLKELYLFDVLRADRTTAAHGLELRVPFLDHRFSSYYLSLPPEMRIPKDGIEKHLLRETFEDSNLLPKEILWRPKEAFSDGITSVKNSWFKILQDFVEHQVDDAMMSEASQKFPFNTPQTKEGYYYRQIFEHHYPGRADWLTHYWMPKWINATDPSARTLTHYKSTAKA

[2] = target: T1, Asparagine synthetase [glutamine-hydrolyzing] (Rattus norvegicus); assay: Inhibition of asparagine synthetase from partially purified rat Novikoff hepatoma at a final concentration of 1 mM
TsH1 [3] = assay: Compound was evaluated for the growth inhibition of TsH1 cells in an enriched eagles minimal essential medium, medium lacking aspartic acid and asparagine at a concentration of 0.04 mg/mL (0.17 mM); Heavy growth; format: functional, cell-based; conditions: Cricetulus griseus
TsH1 [4] = assay: Compound was evaluated for the growth inhibition of TsH1 cells in an enriched eagles minimal essential medium, medium lacking aspartic acid and asparagine at a concentration of 0.2 mg/mL (0.87 mM); Heavy growth; format: functional, cell-based; conditions: Cricetulus griseus
TsH1 [5] = assay: Compound was evaluated for the growth inhibition of TsH1 cells in an enriched […] at a concentration of 0.2 mg/mL (0.87 mM); Heavy growth; format: functional, cell-based; conditions: Cricetulus griseus
TsH1 [6] = assay: Compound was evaluated for the growth inhibition of TsH1 cells in an enriched eagles minimal essential medium, complete medium at a concentration of 0.01 mg/mL (0.01 mM); Heavy growth; format: functional, cell-based; conditions: Cricetulus griseus
TsH1 [7] = assay: Compound was evaluated for the growth inhibition of TsH1 cells in an enriched eagles minimal essential medium, complete medium at a concentration of 0.2 mg/mL (0.87 mM); Heavy growth; format: functional, cell-based; conditions: Cricetulus griseus
TsH1 [8] = assay: Compound was evaluated for the growth inhibition of TsH1 cells in an enriched eagles minimal essential medium, medium lacking asparagine at a concentration of 0.2 mg/mL (0.87 mM); Heavy growth; format: functional, cell-based; conditions: Cricetulus griseus
TsH1 [9] = assay: Compound was evaluated for the growth inhibition of TsH1 cells in an enriched eagles minimal essential medium, medium lacking asparagine at a concentration of 1.0 mg/mL (4.34 mM); Heavy growth; format: functional, cell-based; conditions: Cricetulus griseus
TsH1 [10] = assay: Compound was evaluated for the growth inhibition of TsH1 cells in an enriched eagles minimal essential medium, medium lacking aspartic acid and asparagine at a concentration of 0.01 mg/mL (0.01 mM); Heavy growth; format: functional, cell-based; conditions: Cricetulus griseus
TsH1 [11] = assay: Compound was evaluated for the growth inhibition of TsH1 cells in an enriched eagles minimal essential medium, medium lacking aspartic acid at a concentration of 0.01 mg/mL (0.01 mM); Heavy growth; format: functional, cell-based; conditions: Cricetulus griseus
TsH1 [12] = assay: Compound was evaluated for the growth inhibition of TsH1 cells in an enriched eagles minimal essential medium, medium lacking asparagine at a concentration of 0.01 mg/mL (0.01 mM); Heavy growth; format: functional, cell-based; conditions: Cricetulus griseus
TsH1 [13] = assay: Compound was evaluated for the growth inhibition of TsH1 cells in an enriched eagles minimal essential medium, complete medium at a concentration of 0.04 mg/mL (0.17 mM); Heavy growth; format: functional, cell-based; conditions: Cricetulus griseus
TsH1 [14] = assay: Compound was evaluated for the growth inhibition of TsH1 cells in an enriched eagles minimal essential medium, complete medium at a concentration of 1.0 mg/mL (4.34 mM); Heavy growth; format: functional, cell-based; conditions: Cricetulus griseus
TsH1 [15] = assay: Compound was evaluated for the growth inhibition of TsH1 cells in an enriched eagles minimal essential medium, medium lacking asparagine at a concentration of 0.04 mg/mL (0.17 mM); Heavy growth; format: functional, cell-based; conditions: Cricetulus griseus
TsH1 [16] = assay: Compound was evaluated for the growth inhibition of TsH1 cells in an enriched eagles minimal essential medium, medium lacking aspartic acid and asparagine at a concentration of 1.0 mg/mL (4.34 mM); Heavy growth; format: functional, cell-based; conditions: Cricetulus griseus
TsH1 [17] = assay: Compound was evaluated for the growth inhibition of TsH1 cells in an enriched eagles minimal essential medium, medium lacking aspartic acid at a concentration of 1.0 mg/mL (4.34 mM); Heavy growth; format: functional, cell-based; conditions: Cricetulus griseus
TsH1 [18] = assay: Compound was evaluated for the growth inhibition of TsH1 cells in an enriched eagles minimal essential medium, cmedium lacking aspartic acid at a concentration of 0.04 mg/mL (0.17 mM); Heavy growth; format: functional, cell-based; conditions: Cricetulus griseus

| inhibition [1] [%] | inhibition [2] [%] | SMILES | Growth inhibition (TsH1 [3]) | Growth inhibition (TsH1 [4]) | Growth inhibition (TsH1 [5]) | Growth inhibition (TsH1 [6]) | Growth inhibition (TsH1 [7]) | Growth inhibition (TsH1 [8]) | Growth inhibition (TsH1 [9]) | Growth inhibition (TsH1 [10]) | Growth inhibition (TsH1 [11]) | Growth inhibition (TsH1 [12]) | Growth inhibition (TsH1 [13]) | Growth inhibition (TsH1 [14]) | Growth inhibition (TsH1 [15]) | Growth inhibition (TsH1 [16]) | Growth inhibition (TsH1 [17]) | Growth inhibition (TsH1 [18]) |
| --- | --- | --- | --- | --- | --- | --- | --- | --- | --- | --- | --- | --- | --- | --- | --- | --- | --- | --- |
| 0 | – | NCC(N)C(=O)O (stereo not drawn) | – | – | – | – | – | – | – | – | – | – | – | – | – | – | – | – |
| – | 37.4 | CCOC(=O)/C=C/C(=O)NCC(N)C(=O)O (stereo not drawn) | Heavy Growth | Heavy Growth | Heavy Growth | Heavy Growth | Heavy Growth | Heavy Growth | Heavy Growth | Heavy Growth | Heavy Growth | Heavy Growth | Heavy Growth | Heavy Growth | Heavy Growth | Heavy Growth | Heavy Growth | Heavy Growth |
